Test results: ChEMBL document CHEMBL1201862, “PubChem BioAssay data set” (2004)
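A five-concentration, 48-hour dose response in 96-well plates underlies each endpoint, interpolated linearly between surrounding concentrations. Here, GI50 denotes the concentration required for 50% inhibition of growth.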 Activity calls are given as the source filed them. Cut-off read from the data, not from the text of the source: active = GI50 up to about 1.1 µM and inactive = higher.

What was measured:
Assay in all cases: DTP human tumour cell line panel, 48 h
[1] = system: SK-OV-3
[2] = system: Hs-578T
[3] = system: A498
[4] = system: M14
[5] = system: COLO 205
[6] = system: OVCAR-4
[7] = system: SNB-19
[8] = system: HCT-116
[9] = system: PC-3
[10] = system: UO-31
[11] = system: OVCAR-8
[12] = system: KM12
[13] = system: OVCAR-5
[14] = system: HOP-62
[15] = system: HL-60
[16] = system: T47D
[17] = system: HT-29
[18] = system: SK-MEL-2
[19] = system: BT-549
[20] = system: MCF7

| SMILES | GI50 [1] | GI50 [2] | GI50 [3] | GI50 [4] | GI50 [5] | GI50 [6] | GI50 [7] | GI50 [8] | GI50 [9] | GI50 [10] | GI50 [11] | GI50 [12] | GI50 [13] | GI50 [14] | GI50 [15] | GI50 [16] | GI50 [17] | GI50 [18] | GI50 [19] | GI50 [20] |
| --- | --- | --- | --- | --- | --- | --- | --- | --- | --- | --- | --- | --- | --- | --- | --- | --- | --- | --- | --- | --- |
| Oc1nc(-c2ccc3ccccc3c2)nc2ccccc12 | 30.3 µM (inactive) | 24.3 µM (inactive) | 32.9 µM (inactive) | 33.5 µM (inactive) | > 100 µM (inactive) | 3.81 µM (inactive) | 19.1 µM (inactive) | 18.7 µM (inactive) | > 100 µM (inactive) | 23.4 µM (inactive) | 12.7 µM (inactive) | > 100 µM (inactive) | 35.2 µM (inactive) | 14.4 µM (inactive) | > 100 µM (inactive) | 64 µM (inactive) | 57.7 µM (inactive) | 91.8 µM (inactive) | > 100 µM (inactive) | 64.4 µM (inactive) |
| CC1c2cc(c3c(c2O)CN([C@@H](C)C2CCCCC2)CO3)C(C)c2cc(c3c(c2O)CN([C@@H](C)C2CCCCC2)CO3)C(C)c2cc(c3c(c2O)CN([C@@H](C)C2CCCCC2)CO3)C(C)c2cc1c1c(c2O)CN([C@@H](C)C2CCCCC2)CO1 (stereo not given in full) | 1.48 µM (inactive) | 1.35 µM (inactive) | 2.06 µM (inactive) | 2.3 µM (inactive) | 1.36 µM (inactive) | 0.929 µM (active) | 1.61 µM (inactive) | 1.06 µM (active) | 1.77 µM (inactive) | 1.81 µM (inactive) | 1.15 µM (inactive) | 0.838 µM (active) | 1.78 µM (inactive) | 1.97 µM (inactive) | 0.152 µM (active) | 1.56 µM (inactive) | 0.277 µM (active) | 2.11 µM (inactive) | 1.77 µM (inactive) | 1.36 µM (inactive) |
| CC(C)CC1[C@@H](OCc2ccccc2)COS(=O)(=O)N1Cc1ccccc1 (stereo not given in full) | > 100 µM (inactive) | 14.7 µM (inactive) | > 100 µM (inactive) | > 100 µM (inactive) | > 100 µM (inactive) | > 100 µM (inactive) | 48.1 µM (inactive) | 53.5 µM (inactive) | 65.5 µM (inactive) | 27.2 µM (inactive) | > 100 µM (inactive) | 20.7 µM (inactive) | > 100 µM (inactive) | > 100 µM (inactive) | 46.2 µM (inactive) | > 100 µM (inactive) | 38.9 µM (inactive) | > 100 µM (inactive) | > 100 µM (inactive) | 91.8 µM (inactive) |
| C=C1C(=O)OC2C1C(OC(=O)/C(C)=C/C)CC(O)(CCl)C1C(O)C=C(C)C21O (stereo not given) | 47.9 µM (inactive) | > 62.1 µM (inactive) | 23.6 µM (inactive) | 11.4 µM (inactive) | 4.58 µM (inactive) | 14.2 µM (inactive) | > 43.8 µM (inactive) | 6.28 µM (inactive) | 21.7 µM (inactive) | 15 µM (inactive) | 10.9 µM (inactive) | 20.5 µM (inactive) | 16.7 µM (inactive) | > 46.1 µM (inactive) | 2.28 µM (inactive) | 11.9 µM (inactive) | 15.7 µM (inactive) | 21 µM (inactive) | 9.48 µM (inactive) | 4.52 µM (inactive) |
| Nc1ncnc2c1nc(Cl)n2[C@@H]1O[C@@H]2COP(=O)(O)O[C@H]2[C@H]1O [TOCLADESINE] | 10.6 µM (inactive) | 28.7 µM (inactive) | 67.6 µM (inactive) | 8.02 µM (inactive) | 10 µM (inactive) | 16.6 µM (inactive) | 122 µM (inactive) | 3.01 µM (inactive) | 8.3 µM (inactive) | 16.4 µM (inactive) | 5.42 µM (inactive) | 75.5 µM (inactive) | 27.7 µM (inactive) | 19.5 µM (inactive) | 3.61 µM (inactive) | 14.7 µM (inactive) | 8.39 µM (inactive) | > 99.8 µM (inactive) | 5.69 µM (inactive) | 8.11 µM (inactive) |
